Measured values from US10689354B2, “Aminoazole derivative” (Teijin Pharma Limited, priority 2015, dated 2020).

What was measured:
human androgen receptor = molecular target: T1, human androgen receptor (Homo sapiens, UniProt P10275); assay: Reporter assay of an androgen receptor responsive sequence (luciferase, transiently transfected HEK293 cells); assay type: cell-based; settings: 24 hours incubation, relative to activity of 100 nM DHT, read-out: AR transcriptive activity (pEC50) (converted)
T1 construct: expressed in transfected cells; host or cells: HEK293
T1 sequence (P10275 1-920): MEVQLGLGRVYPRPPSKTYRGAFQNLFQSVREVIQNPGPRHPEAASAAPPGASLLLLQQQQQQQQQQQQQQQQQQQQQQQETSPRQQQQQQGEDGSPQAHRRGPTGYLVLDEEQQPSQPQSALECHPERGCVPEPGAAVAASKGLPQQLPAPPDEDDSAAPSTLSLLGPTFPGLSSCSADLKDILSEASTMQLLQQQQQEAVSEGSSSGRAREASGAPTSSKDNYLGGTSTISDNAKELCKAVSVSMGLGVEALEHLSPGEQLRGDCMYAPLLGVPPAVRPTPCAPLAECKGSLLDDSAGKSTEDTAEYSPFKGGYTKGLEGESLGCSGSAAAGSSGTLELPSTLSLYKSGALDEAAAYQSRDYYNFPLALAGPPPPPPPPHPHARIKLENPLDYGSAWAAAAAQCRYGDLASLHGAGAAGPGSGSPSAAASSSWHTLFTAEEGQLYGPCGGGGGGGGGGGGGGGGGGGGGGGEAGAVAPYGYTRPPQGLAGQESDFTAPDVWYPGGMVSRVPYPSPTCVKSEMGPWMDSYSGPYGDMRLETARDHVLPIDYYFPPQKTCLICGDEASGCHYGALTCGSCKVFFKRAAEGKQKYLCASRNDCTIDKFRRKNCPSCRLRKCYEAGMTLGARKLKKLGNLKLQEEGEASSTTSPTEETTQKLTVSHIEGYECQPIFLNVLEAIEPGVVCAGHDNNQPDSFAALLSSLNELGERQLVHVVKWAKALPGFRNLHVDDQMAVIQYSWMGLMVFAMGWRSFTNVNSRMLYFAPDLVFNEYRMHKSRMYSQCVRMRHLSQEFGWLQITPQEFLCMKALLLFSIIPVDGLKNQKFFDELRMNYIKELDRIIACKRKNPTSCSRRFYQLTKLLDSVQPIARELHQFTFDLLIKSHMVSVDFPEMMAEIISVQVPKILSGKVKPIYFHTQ
Outline: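 Agonism scored as pEC50, fitted by 4-parameter curve against the response to 100 nM DHT, from dual-luciferase readout after 24 h compound treatment. Cells were HEK293 co-transfected (3 h) with human AR expression vector, androgen-responsive firefly reporter and Renilla control, in charcoal-stripped serum.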

[1] = molecular target: T2, androgen receptor (AR-LBD) (Rattus norvegicus, UniProt P15207); assay: Evaluation of androgen receptor affinity (PolarScreen Androgen Receptor Competitor Assay Kit, Red; fluorescence polarization); settings: 22° C. for 5 hours, relative to binding rate of 1 μM DHT, read-out: AR affinity (pEC50) (converted)
T2 construct: 5 μL of 2×AR-LBD/Fluoromone AL Red Complex contained in the kit; purchased Invitrogen
T2 sequence (P15207 651-882 limits assumed): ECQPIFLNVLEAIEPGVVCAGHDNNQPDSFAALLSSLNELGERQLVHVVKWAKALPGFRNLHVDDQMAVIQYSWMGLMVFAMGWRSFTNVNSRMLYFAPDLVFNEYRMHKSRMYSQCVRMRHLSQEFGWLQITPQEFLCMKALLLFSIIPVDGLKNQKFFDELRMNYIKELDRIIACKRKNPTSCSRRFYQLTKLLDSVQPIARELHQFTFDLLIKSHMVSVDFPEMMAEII
Outline: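 Test compound and the 2× AR-LBD/Fluoromone AL Red complex were combined in duplicate wells. After reacting 5 h at 22° C, polarization was measured. pEC50 was derived by 4-parameter fitting, normalizing to binding obtained with 1 μM dihydrotestosterone.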

Compound | EC50 (human androgen receptor) | EC50 [1]
Cc1sc(N(CC[C@H]2CC[C@@H](O)C2)c2ccc(C#N)cc2)nc1C(=O)NS(C)(=O)=O (racemic) [Compound 436, 2-[4-cyano-N-[2-[cis-3-hydroxycyclopentyl]ethyl]anilino]-5-methyl-N-methylsulfonyl-thiazole-4-carboxamide] | 1.58 µM | 0.501 µM
Cc1sc(N(CCc2ccc(Cl)cc2)Cc2ccc(Cl)cc2)nc1C(=O)NS(=O)(=O)C(F)(F)F [Compound 696, 2-[2-(4-chlorophenyl)ethyl-[(4-chlorophenyl)methyl]amino]-5-methyl-N-(trifluoromethylsulfonyl)thiazole-4-carboxamide] | 0.631 µM | 0.2 µM
Cc1sc(N(Cc2cccc(N3CCCCC3)c2)c2ccc(C#N)cc2)nc1C(=O)NS(C)(=O)=O [Example 217, 2-[4-cyano-N-[[3-(1-piperidyl)phenyl]methyl]anilino]-5-methyl-N-methylsulfonyl-thiazole-4-carboxamide] | 3.16 µM | 0.0501 µM
CS(=O)(=O)NC(=O)c1nc(N(Cc2ccc(Cl)cc2)c2ccc(C#N)cc2)sc1Cl [Example 269, 5-chloro-2-[N-[(4-chlorophenyl)methyl]-4-cyano-anilino]-N-methylsulfonyl-thiazole-4-carboxamide] | 0.02 µM | 0.0251 µM
CCS(=O)(=O)NC(=O)c1nc(N(CCC2CCCCC2)Cc2ccc(OC(F)(F)F)cc2)sc1C [Compound 733, 2-[2-cyclohexylethyl-[[4-(trifluoromethoxy)phenyl]methyl]amino]-N-ethylsulfonyl-5-methyl-thiazole-4-carboxamide] | > 10 µM | 0.2 µM
Cc1sc(N(CCc2ccc(OC(F)(F)F)cc2)Cc2ccc(C#N)cc2)nc1C(=O)NS(C)(=O)=O [Compound 506, 2-[(4-cyanophenyl)methyl-[2-[4-(trifluoromethoxy)phenyl]ethyl]amino]-5-methyl-N-methylsulfonyl-thiazole-4-carboxamide] | > 10 µM | 0.0251 µM
Cc1oc(N(CCc2ccc(Cl)cc2)CC[C@@H]2CCCC[C@H]2O)nc1C(=O)NS(C)(=O)=O (racemic) [Compound 547, 2-[2-(4-chlorophenyl)ethyl-[2-[trans-2-hydroxycyclohexyl]ethyl]amino]-5-methyl-N-methylsulfonyl-oxazole-4-carboxamide] | 2.51 µM | 0.316 µM
Cc1sc(N(Cc2ccc(SC(F)(F)F)cc2)c2ccc(C#N)cc2)nc1C(=O)NS(C)(=O)=O [Compound 113, 2-[4-cyano-N-[[4-(trifluoromethylsulfanyl)phenyl]methyl]anilino]-5-methyl-N-methylsulfonyl-thiazole-4-carboxamide] | 0.158 µM | 0.0251 µM
Cc1sc(N(Cc2cc(C(F)(F)F)ccn2)c2ccc(C#N)cc2)nc1C(=O)NS(C)(=O)=O [Example 186, 2-[4-cyano-N-[[4-(trifluoromethyl)-2-pyridyl]methyl]anilino]-5-methyl-N-methylsulfonyl-thiazole-4-carboxamide] | 0.631 µM | 0.2 µM
Cc1sc(N(Cc2ccc3nccnc3c2)c2ccc(C#N)cc2)nc1C(=O)NS(C)(=O)=O [Compound 404, 2-[4-cyano-N-(quinoxalin-6-ylmethyl)anilino]-5-methyl-N-methylsulfonyl-thiazole-4-carboxamide] | 3.16 µM | 1 µM
Cc1sc(N(Cc2csc3cccc(C)c23)c2ccc(C#N)cc2)nc1C(=O)NS(C)(=O)=O [Compound 464, 2-[4-cyano-N-[(4-methylbenzothiophen-3-yl)methyl]anilino]-5-methyl-N-methylsulfonyl-thiazole-4-carboxamide] | 5.01 µM | 0.0631 µM
Cc1sc(N(Cc2cc(C(F)(F)F)ccc2Cl)c2ccc(C#N)cc2)nc1C(=O)NS(C)(=O)=O [Compound 417, 2-[N-[[2-chloro-5-(trifluoromethyl)phenyl]methyl]-4-cyano-anilino]-5-methyl-N-methylsulfonyl-thiazole-4-carboxamide] | > 10 µM | 0.316 µM
Cc1sc(N(Cc2ccc(OC(F)(F)F)cc2)c2ccc(C#N)cc2)nc1C(=O)NS(=O)(=O)Cc1ccncc1 [Compound 500, 2-[4-cyano-N-[[4-(trifluoromethoxy)phenyl]methyl]anilino]-5-methyl-N-(4-pyridylmethylsulfonyl)thiazole-4-carboxamide] | 0.126 µM | 0.02 µM
Cc1sc(N(CC2CCCC2)c2ccc(C#N)cc2)nc1C(=O)NS(C)(=O)=O [Compound 19, 2-[4-cyano-N-(cyclopentylmethyl)anilino]-5-methyl-N-methylsulfonyl-thiazole-4-carboxamide] | > 10 µM | 0.158 µM
Cc1sc(N(Cc2ccc(Cl)cc2Cl)c2ccc(C#N)cc2)nc1C(=O)NS(C)(=O)=O [Compound 413, 2-[4-cyano-N-[(2,4-dichlorophenyl)methyl]anilino]-5-methyl-N-methylsulfonyl-thiazole-4-carboxamide] | 0.501 µM | 0.0251 µM
Cc1sc(N(Cc2ccccc2OC(F)F)c2ccc(C#N)cc2)nc1C(=O)NS(C)(=O)=O [Compound 5, 2-[4-cyano-N-[[2-(difluoromethoxy)phenyl]methyl]anilino]-5-methyl-N-methylsulfonyl-thiazole-4-carboxamide] | 0.251 µM | 0.1 µM
CS(=O)(=O)NC(=O)c1nc(N(Cc2ccc(OC(F)F)cc2)c2ccc(C#N)cc2)sc1Br [Example 256, 5-bromo-2-[4-cyano-N-[[4-(difluoromethoxy)phenyl]methyl]anilino]-N-methylsulfonyl-thiazole-4-carboxamide] | 0.0501 µM | 0.0501 µM
CS(=O)(=O)NC(=O)c1nc(N(Cc2ccc(Br)cn2)c2ccc(C#N)cc2)sc1Br [Compound 642, 5-bromo-2-[N-[(5-bromo-2-pyridyl)methyl]-4-cyano-anilino]-N-methylsulfonyl-thiazole-4-carboxamide] | 0.0501 µM | 0.0794 µM
Cc1sc(N(CCc2ccc(C#N)cc2)CC2CCCCC2)nc1C(=O)NS(=O)(=O)Cc1cccnc1 [Compound 725, 2-[2-(4-cyanophenyl)ethyl-(cyclohexylmethyl)amino]-5-methyl-N-(3-pyridylmethylsulfonyl)thiazole-4-carboxamide] | > 10 µM | 0.1 µM
CS(=O)(=O)NC(=O)c1nc(N(Cc2ccc(Cl)cc2)c2ccc(C#N)cc2)sc1C1CC1 [Compound 661, 2-[N-[(4-chlorophenyl)methyl]-4-cyano-anilino]-5-cyclopropyl-N-methylsulfonyl-thiazole-4-carboxamide] | 0.501 µM | 0.0158 µM
COCCCS(=O)(=O)NC(=O)c1nc(N(Cc2ccc(Cl)cc2OC(F)F)c2ccc(C#N)cc2)sc1C [Example 194, 2-[N-[[4-chloro-2-(difluoromethoxy)phenyl]methyl]-4-cyano-anilino]-N-(3-methoxypropylsulfonyl)-5-methyl-thiazole-4-carboxamide] | 2.51 µM | 0.0631 µM
Cc1sc(N(CC[Si](C)(C)C)c2ccc(C#N)cc2)nc1C(=O)NS(C)(=O)=O [Compound 476, 2-[4-cyano-N-(2-trimethylsilylethyl)anilino]-5-methyl-N-methylsulfonyl-thiazole-4-carboxamide] | > 10 µM | 0.2 µM
Cc1sc(N(Cc2ccccc2)c2ccc3ncsc3c2)nc1C(=O)NS(C)(=O)=O [Compound 335, 2-[1,3-benzothiazol-6-yl(benzyl)amino]-5-methyl-N-methylsulfonyl-thiazole-4-carboxamide] | 1.58 µM | 0.631 µM
Cc1sc(N(Cc2ccccc2SC(F)(F)F)c2ccc(C#N)cc2)nc1C(=O)NS(C)(=O)=O [Compound 56, 2-[4-cyano-N-[[2-(trifluoromethylsulfanyl)phenyl]methyl]anilino]-5-methyl-N-methylsulfonyl-thiazole-4-carboxamide] | 6.31 µM | 0.0631 µM
